Results as given in US7919671B2, “Method for testing a compound for a therapeutic effect and a diagnostic method” (Chempath Oy, priority 2004, dated 2011).

Each molecule was assayed against T1, human PAP (Homo sapiens, UniProt P15309) (assay: protein overlay assay of PAP binding to immobilized phospholipids (PIP Strips)). Conditions: 100 pmole lipid per spot on nitrocellulose strip; 10 μg/ml or 50 μg/ml human PAP, overnight at +4° C.
T1 sequence (P15309 33-386): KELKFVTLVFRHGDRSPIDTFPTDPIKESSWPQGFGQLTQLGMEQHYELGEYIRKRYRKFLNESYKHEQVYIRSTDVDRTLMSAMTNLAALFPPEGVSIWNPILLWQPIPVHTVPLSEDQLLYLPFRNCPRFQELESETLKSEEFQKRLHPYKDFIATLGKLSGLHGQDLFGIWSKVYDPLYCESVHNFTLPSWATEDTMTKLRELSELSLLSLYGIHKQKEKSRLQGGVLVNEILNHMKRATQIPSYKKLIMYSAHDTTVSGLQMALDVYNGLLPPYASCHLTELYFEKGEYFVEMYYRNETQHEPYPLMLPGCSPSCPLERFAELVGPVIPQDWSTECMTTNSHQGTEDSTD
Method: (D) The phospholipid binding properties of PAP. Nitrocellulose-immobilized phospholipids at 100 pmole per spot. The lipids, indicated by dashed circles, are: 1. lysophosphatidic acid, 2. lysophosphocholine, 3. PI; 4. PI(3)P; 5. PI(4)P; 6. PI(5)P; 7. phosphatidyletanolamine; 8. phosphatidylcholine; 9. spingosine-1-phosphate; 10. PI(3,4)P2; 11. PI(3,5)P2; 12. PI(4,5)P2; 13. PI(3,4,5)P3; 14. phosphatidic acid; 15. phosphatidylserine; 16. blank. The strip was incubated with human PAP at concentration 10 μg/ml.
The interaction between PAP and PI lipids was investigated using protein overlay assay.
The binding of human PAP to phospholipids was screened using PIP Strips™ (Echelon Bioscience). 100 pmole of lysophosphatidic acid, lysophosphocholine, PI, PI(3)P, PI(4)P, PI(5)P, phosphatidyletanolamine, phosphatidylcholine, sphingosine-1-phosphate, PI(3,4)P2, PI(3,5)P2, PI(4,5)P2, PI(3,4,5)P3, phosphatidic acid, and phosphatidylserine was immobilized on a nitrocellulose strip. The strip was incubated with 10 μg/ml or 50 μg/ml human PAP in 4% non-fat dry milk (Valio) in TBS-T overnight at +4° C. The bound PAP was detected using polyclonal PAP antibody produced by us (Vihko et al., 1978, Clin. Chem. 24, 1915-1919), alkalinephosphatase conjugated secondary antibody (Sigma), and the NBT/BCIP color reaction assay (Promega).
For `CCCCCCCCCCCCCCCC(=O)OC[C@H](COP(=O)(O)O[C@@H]1[C@H](O)[C@H](OP(=O)(O)O)[C@@H](O)[C@H](O)[C@H]1O)OC(=O)CCCCCCCCCCCCCCC` [PI(3)P, phosphatidylinositol 3-phosphate], the “binding of PAP to the lipid” value was “binds strongly”. In the case of `CCCCCCCCCCCCC/C=C/[C@@H](O)[C@@H](N)COP(=O)(O)O` [sphingosine-1-phosphate], the “binding of PAP to the lipid” value is reported as “no affinity”. With PI(3,4)P2 the “binding of PAP to the lipid” value was “no affinity”. With PI(3,4,5)P3 the “binding of PAP to the lipid” value was “no affinity”. With PI(3,5)P2 the “binding of PAP to the lipid” value was “no affinity”. In the case of PI(4,5)P2, the “binding of PAP to the lipid” value is reported as “no affinity”. With PI(5)P the “binding of PAP to the lipid” value was “no affinity”. With Phosphatidylinositol [PI] the “binding of PAP to the lipid” value was “no affinity”. With lysophosphatidic acid the “binding of PAP to the lipid” value was “no affinity”. In the case of lysophosphocholine, the “binding of PAP to the lipid” value is reported as “no affinity”. For phosphatidic acid, the “binding of PAP to the lipid” value was “no affinity”. With phosphatidylcholine the “binding of PAP to the lipid” value was “no affinity”. In the case of phosphatidylethanolamine, the “binding of PAP to the lipid” value is reported as “no affinity”. In the case of “phosphatidylinositol 4-phosphate [PI(4)P]”, the “binding of PAP to the lipid” value is reported as “no affinity”. In the case of phosphatidylserine, the “binding of PAP to the lipid” value is reported as “no affinity”.

Each molecule was assayed against T2, PAP purified from human spermatic fluid (Homo sapiens, UniProt P15309) (assay: malachite green assay of the PI(3)P phosphatase activity of PAP). Conditions: 50 mM MES buffer, pH 6.5; 0.25 μg PAP per reaction; 37° C., 2 and 5 min.
T2 construct: purified from human spermatic fluid as previously described; from tissue; host or cells: human spermatic (seminal) fluid
T2 sequence (P15309 33-386): T1 sequence (P15309 33-386)
Type: biochemical
Method: (E) PI(3)P phosphatase activity of PAP. Phosphatase assays containing 0.01 μg/μl PAP with varying amounts of PI(3)P or buffer were incubated for 5 min at 37° C. and free phosphate was measured by malachite green assay. Initial velocities were calculated from these time courses and plotted against the respective substrate concentration.
To confirm that PAP hydrolyses PI(3)P the lipid phosphatase activity of PAP towards PI(3)P was studied. […] Being sigmoidal, the kinetic curve was inconsistent with Michaelis-Menten kinetics.
A malachite green assay (BIOMOL GREEN™, BIOMOL Research Laboratories, Inc.) adapted to a 96-well format was used to measure the released free-phosphate from PI(3)P (Echelon Bioscience Inc.). Briefly, the reaction (total volume of 25 μl) containing 50 mM MES buffer, pH 6.5 and an indicated amount of PI(3)P, was initiated by adding the PAP (0.25 μg per reaction) purified from human spermatic fluid as previously described (specific activity of the enzyme 397 μmol min^−1 mg^−1) (Vihko et al. 1978, Clin. Chem. 24, 1915-1919). After incubation at 37° C. for 2 and 5 min the reaction was terminated by adding 100 μl of BIOMOL GREEN reagent. The green color was allowed to develop for 20 min at room temperature and absorbance was measured at 650 nm. The phosphate released was quantified by comparing to inorganic phosphate standards. […]
`CCCCCCCCCCCCCCCC(=O)OC[C@H](COP(=O)(O)O[C@@H]1[C@H](O)[C@H](OP(=O)(O)O)[C@@H](O)[C@H](O)[C@H]1O)OC(=O)CCCCCCCCCCCCCCC` [PI(3)P, phosphatidylinositol 3-phosphate] was tested, and the “lipid phosphatase activity of PAP towards the lipid (use as a substrate)” value was “utilizes PI(3)P as a substrate”.

Same assay, conditions: 50 mM MES buffer, pH 6.5; 37° C.; inconsistent with Michaelis-Menten kinetics
`CCCCCCCCCCCCCCCC(=O)OC[C@H](COP(=O)(O)O[C@@H]1[C@H](O)[C@H](OP(=O)(O)O)[C@@H](O)[C@H](O)[C@H]1O)OC(=O)CCCCCCCCCCCCCCC` [PI(3)P, phosphatidylinositol 3-phosphate] was tested, and the “shape of the kinetic curve (initial velocity against substrate concentration)” value was “sigmoidal”.
